Assay results published in patent US9975869B2 (Sphaera Pharma Pvt. Ltd., priority 2013, dated 2018).

test system: AMPK; assay: AMPK activation potential, cell based ELISA (Phospho-AMPKα Thr172) in Hep G2 cells; conditions: 10 nm concentration; Hep G2 liver cells; % activity with DMSO control as 100%; 30 min incubation for Epicatechin analogs
Procedure: Testing of Compounds for Their AMPK Activation Potential
AMPK activation potential of the compounds was evaluated using cell based ELISA. Hepatoma (Hep G2) liver cells were maintained in a T 75 culture flask-containing 25 mM DMEM+10% fetal calf serum. The cells were maintained in a T 75 culture flask-containing medium (DMEM+10% fetal calf serum). On reaching a confluence of 70 to 80%, the cells were seeded in a 96 well plate at a density of 40,000 cells per well in 25 mM DMEM+10% FCS medium. The plates were then incubated at 37° C. with 5% CO2 for 24 hours. Various concentrations of drugs were prepared in DMSO and diluted to required concentration with the medium and incubated at 37° C. with 5% CO2 for 30 min and 1 h for Epicatechin analogs and 11-BHP analogs respectively. Metformin was used as positive control. Cells were fixed with 4% formaldehyde for 30 minutes at room temperature and washed three times with PBS containing 0.1% Triton X-100. Endogenous peroxidase was quenched with 1% H2O2 in PBS-T (0.1% Tween 20) for 30 minutes and washed three times in PBS-T. Cells were blocked with 1% BSA in PBS-T for 1 hour. The cells were incubated with 1:1000 dilution primary antibody (Phospho-AMPKα (Thr172) Rabbit mAb, Cell Signaling in PBS-T containing 5% BSA at 4° C. overnight. The cells were then washed three times with PBS-T for 5 minutes and incubated with 1:1000 dilution secondary antibody (Anti-rabbit IgG, HRP-linked Antibody, Cell Signaling) in PBS-T with 1% BSA for 1 hour at RT. Cells were washed three times with PBS-T for 5 minutes The cells were incubated with 100 μl TMB substrate solution for 30 minutes and the reaction was stopped with 100 μl of 2N H2SO4. Then the plate was read at 450 nm using ELISA plate reader and absorbance recorded. % activity was calculated using DMSO control as 100%. All compounds of the present invention, as exemplified and encompassed are found to be active.

First: [2H][C@]1(c2ccc(O)c(O)c2)Oc2cc(O)cc(O)c2C[C@H]1O [Compound 1037, (2R,3R)-2-(3,4-dihydroxyphenyl)chromane-2-d-3,5,7-triol]
Second: [2H]C1([2H])c2c(O)cc(O)cc2O[C@H](c2ccc(O)c(O)c2)[C@@H]1O [Compound 1036, (2R,3R)-2-(3,4-dihydroxyphenyl)chromane-4,4-d2-3,5,7-triol]
The “% pAMPK(at 10 nm)” value of the first is higher: 110% for the first, 105% for the second.

Compared with `COC(=O)Oc1ccc([C@H]2Oc3cc(O)cc(O)c3C[C@H]2O)cc1OC(=O)OC` [Compound 1049, dimethyl (4-((2R,3R)-3,5,7-trihydroxychroman-2-yl)-1,2-phenylene) bis(carbonate)], `CC(C)NC(=O)Oc1ccc([C@H]2Oc3cc(O)cc(O)c3C[C@H]2O)cc1OC(=O)NC(C)C` [Compound 1044, 4-((2R,3R)-3,5,7-trihydroxychroman-2-yl)-1,2-phenylene bis(isopropylcarbamate)] is lower in “% pAMPK(at 10 nm)” value: 105% for the first, 96% for the second.

First: Oc1cc(O)c2c(c1)O[C@H](c1cc(O)c(O)cc1F)[C@H](O)C2 (racemic) [Compound 1033, Cis (±) 2-(2-fluoro-4,5-dihydroxyphenyl)chromane-3,5,7-triol]
Second: Cc1cc([C@H]2Oc3cc(O)cc(O)c3C[C@H]2O)cc(O)c1O (racemic) [Compound 1035, Cis (±) (2-(3,4-dihydroxy-5-methylphenyl)chromane-3,5,7-triol]
The “% pAMPK(at 10 nm)” value of the first is higher: 107% for the first, 102% for the second.

First: Oc1ccc([C@H]2Oc3ccccc3C[C@H]2O)cc1O (racemic) [Compound 1002, Cis (±) 3-hydroxychroman-2-yl)benzene-1,2-diol]
Second: Cc1ccc([C@H]2Oc3cc(O)ccc3C[C@H]2O)cc1O [Compound 1069, (2R,3R)-2-(3-hydroxy-4-methylphenyl)chromane-3,7-diol]
The “% pAMPK(at 10 nm)” value of the first is lower: 108% for the first, 110% for the second.

Going from `COC(=O)Oc1cc(OC(=O)OC)c2c(c1)O[C@H](c1ccc(OC(=O)OCc3ccccc3)c(OC(=O)OCc3ccccc3)c1)[C@H](O)C2` [Compound 1066, dibenzyl (4-((2R,3R)-3-hydroxy-5,7-bis((methoxycarbonyl)oxy)chroman-2-yl)-1,2-phenylene) bis(carbonate)] to `CC(C)COC(=O)Oc1cc(OC(=O)OCC(C)C)c2c(c1)O[C@H](c1ccc(OC(=O)OCc3ccccc3)c(OC(=O)OCc3ccccc3)c1)[C@H](O)C2` [Compound 1060, dibenzyl (4-((2R,3R)-3-hydroxy-5,7-bis((isobutoxycarbonyl)oxy)chroman-2-yl)-1,2-phenylene) bis(carbonate)], the “% pAMPK(at 10 nm)” value falls from 139% to 110%.

Going from `COC(=O)CNC(=O)O[C@@H]1Cc2c(O)cc(O)cc2O[C@@H]1c1ccc(O)c(O)c1` [Compound 1056, methyl ((((2R,3R)-2-(3,4-dihydroxyphenyl)-5,7-dihydroxychroman-3-yl)oxy)carbonyl)glycinate] to `CCOC(=O)O[C@@H]1Cc2c(O)cc(O)cc2O[C@@H]1c1ccc(O)c(O)c1` [Compound 1053, (2R,3R)-2-(3,4-dihydroxyphenyl)-5,7-dihydroxychroman-3-yl ethyl carbonate], the “% pAMPK(at 10 nm)” value falls from 112% to 94%.

Going from `O=C(NCc1ccccc1)Oc1ccc([C@H]2Oc3cc(O)cc(O)c3C[C@H]2O)cc1OC(=O)NCc1ccccc1` [Compound 1059, 4-((2R,3R)-3,5,7-trihydroxychroman-2-yl)-1,2-phenylene bis(benzylcarbamate)] to `O=C(OCc1ccccc1)Oc1ccc([C@H]2Oc3cc(O)cc(O)c3C[C@H]2O)cc1OC(=O)OCc1ccccc1` [Compound 1048, dibenzyl (4-((2R,3R)-3,5,7-trihydroxychroman-2-yl)-1,2-phenylene) bis(carbonate)], the “% pAMPK(at 10 nm)” value falls from 144% to 103%.

Compared with `COc1cc([C@H]2Oc3cc(O)ccc3C[C@H]2O)ccc1C` (stereo in doubt) [Compound 1026, 2-(3-methoxy-4-methylphenyl)chromane-3,7-diol], `Cc1ccc([C@H]2Oc3cc(O)ccc3C[C@H]2O)cc1O` (stereo in doubt) [Compound 1027, 2-(3-hydroxy-4-methylphenyl)chromane-3,7-diol] is lower in “% pAMPK(at 10 nm)” value: 101% for the first, 94% for the second.

Compared with `CCCCCCCC(=O)Oc1cc(O)cc2c1C[C@@H](O)[C@@H](c1ccc(O)c(O)c1)O2` [Compound 1064, (2R,3R)-2-(3,4-dihydroxyphenyl)-3,7-dihydroxychroman-5-yl octanoate], `CCCCCCCC(=O)Oc1ccc([C@H]2Oc3cc(O)cc(O)c3C[C@H]2O)cc1O` [Compound 1043, 2-hydroxy-4-((2R,3R)-3,5,7-trihydroxychroman-2-yl)phenyl octanoate] is lower in “% pAMPK(at 10 nm)” value: 110% for the first, 98% for the second.

First: CCCO[C@@H]1Cc2ccc(O)cc2O[C@@H]1c1cccc(OC)c1 [Compound 1068, (2R,3R)-2-(3-methoxyphenyl)-3-propoxychroman-7-ol]
Second: CCCO[C@@H]1Cc2ccc(O)cc2OC1c1cccc(O)c1 (stereo in doubt) [Compound 1030, 2-(3-hydroxyphenyl)-3-propoxychroman-7-ol]
The “% pAMPK(at 10 nm)” value of the first is lower: 90% for the first, 94% for the second.

First: Oc1cc(O)c2c(c1)O[C@H](c1ccccc1)[C@H](O)C2 (racemic) [Compound 1015, Cis (±) 2-phenylchroman-3,5,7-triol]
Second: Oc1ccc([C@H]2Oc3cc(O)cc(O)c3C[C@H]2O)cc1 (racemic) [Compound 1008, Cis (±) 2-(4-hydroxyphenyl)chroman-3,5,7-triol]
The “% pAMPK(at 10 nm)” value of the first is higher: 119% for the first, 103% for the second.

Compared with `CC(C)COC(=O)Oc1cc(OC(=O)OCC(C)C)c2c(c1)O[C@H](c1ccc(O)c(O)c1)[C@H](O)C2` [Compound 1050, (2R,3R)-2-(3,4-dihydroxyphenyl)-3-hydroxychromane-5,7-diyl diisobutyl bis(carbonate)], `CC(C)(C)COC(=O)Oc1cc([C@H]2Oc3cc(O)cc(O)c3C[C@H]2O)ccc1O` [Compound 1042, 2-hydroxy-5-((2R,3R)-3,5,7-trihydroxychroman-2-yl)phenyl neopentyl carbonate] is higher in “% pAMPK(at 10 nm)” value: 91% for the first, 95% for the second.

Going from `O=C(O[C@@H]1Cc2c(O)cc(O)cc2O[C@@H]1c1ccc(O)c(O)c1)c1cccnc1` [Compound 1071, (2R,3R)-2-(3,4-dihydroxyphenyl)-5,7-dihydroxychroman-3-yl nicotinate] to `C[n+]1cccc(C(=O)O[C@@H]2Cc3c(O)cc(O)cc3O[C@@H]2c2ccc(O)c(O)c2)c1` [Compound 1041, 3-((((2R,3R)-2-(3,4-dihydroxyphenyl)-5,7-dihydroxychroman-3-yl)oxy)carbonyl)-1-methylpyridin-1-ium], the “% pAMPK(at 10 nm)” value falls from 102% to 88%.

Compared with `CC(C)OC(=O)O[C@@H]1Cc2c(O)cc(O)cc2O[C@@H]1c1ccc(O)c(O)c1` [Compound 1055, (2R,3R)-2-(3,4-dihydroxyphenyl)-5,7-dihydroxychroman-3-yl isopropyl carbonate], `CC(C)(C)OC(=O)O[C@@H]1Cc2c(O)cc(O)cc2O[C@@H]1c1ccc(O)c(O)c1` [Compound 1073, tert-butyl ((2R,3R)-2-(3,4-dihydroxyphenyl)-5,7-dihydroxychroman-3-yl) carbonate] is higher in “% pAMPK(at 10 nm)” value: 105% for the first, 109% for the second.

Going from `Oc1cccc([C@H]2Oc3cc(O)ccc3C[C@H]2O)c1` (racemic) [Compound 1007, Cis (±) 2-(3-hydroxyphenyl)chroman-3,7-diol] to `COc1cccc([C@H]2Oc3cc(O)ccc3C[C@H]2O)c1` (racemic) [Compound 1017], the “% pAMPK(at 10 nm)” value falls from 113% to 110%.

First: CC(C)(C)COC(=O)O[C@@H]1Cc2c(O)cc(O)cc2O[C@@H]1c1ccc(O)c(O)c1 [Compound 1045, (2R,3R)-2-(3,4-dihydroxyphenyl)-5,7-dihydroxychroman-3-yl neopentyl carbonate]
Second: CN(C)C(=O)O[C@@H]1Cc2c(O)cc(O)cc2O[C@@H]1c1ccc(O)c(O)c1 [Compound 1047, (2R,3R)-2-(3,4-dihydroxyphenyl)-5,7-dihydroxychroman-3-yl dimethylcarbamate]
The “% pAMPK(at 10 nm)” value of the first is higher: 105% for the first, 100% for the second.

First: COc1ccc([C@H]2Oc3cc(OC)ccc3C[C@H]2O)cc1 [Compound 1070, (2R,3R)-7-methoxy-2-(4-methoxyphenyl)chroman-3-ol]
Second: COc1cccc([C@H]2Oc3cc(OC)ccc3C[C@H]2O)c1 (racemic) [Compound 1019]
The “% pAMPK(at 10 nm)” value of the first is higher: 126% for the first, 101% for the second.

Compared with `O=C(OCc1ccccc1)Oc1cc(OC(=O)OCc2ccccc2)c2c(c1)O[C@H](c1ccc(OC(=O)OCc3ccccc3)c(OC(=O)OCc3ccccc3)c1)[C@H](O)C2` [Compound 1052, dibenzyl (4-((2R,3R)-5,7-bis(((benzyloxy)carbonyl)oxy)-3-hydroxychroman-2-yl)-1,2-phenylene) bis(carbonate)], `Oc1cc(O)c2c(c1)O[C@H](c1ccc(O)c(F)c1)[C@H](O)C2` (racemic) [Compound 1034, Cis (±) 2-(3-fluoro-4-hydroxyphenyl)chromane-3,5,7-triol] is higher in “% pAMPK(at 10 nm)” value: 103% for the first, 107% for the second.

`COc1ccc2c(c1)O[C@H](c1cccc(O)c1)[C@H](O)C2` (racemic) [Compound 1018] was tested, and the “% pAMPK(at 10 nm)” value was 100%.
